Test results taken from patent US11272709B2, “Amidine substituted benzoyl derivatives useful as herbicides” (Syngenta Participations AG, priority 2018, dated 2022).

What was measured:
Type in all cases: in vivo
Conditions in all cases: evaluated after 13 days
[1] = system: Abutilon theophrasti (ABUTH); test: Post-emergence herbicidal glasshouse test, Abutilon theophrasti (ABUTH)
Description: (§1) Seeds of a variety of test species are sown in standard soil in pots (Lolium perenne (LOLPE), Amaranthus retoflexus (AMARE), Abutilon theophrasti (ABUTH), Setaria faberi (SETFA), Echinochloa crus-galli (ECHCG), Ipomoea hederacea (IPOHE)). After cultivation for one day (pre-emergence) or after 8 days cultivation (post-emergence) under controlled conditions in a glasshouse (at 24/16° C., day/night; 14 hours light; 65% humidity), the plants are sprayed with an aqueous spray solution derived from the formulation of the technical active ingredient in acetone/water (50:50) solution containing 0.5% Tween 20 (polyoxyethelyene sorbitan monolaurate, CAS RN 9005-64-5). Compounds are applied at 500 g/h unless otherwise indicated. The test plants are then grown in a glasshouse under controlled conditions in a glasshouse (at 24/16° C., day/night; 14 hours light; 65% humidity) and watered twice daily. After 13 days for pre and post-emergence, the test is evaluated for the percentage damage caused to the plant. The biological activities are shown in the following table on a five point scale (5=80-100%; 4=60-79%; 3=40-59%; 2=20-39%; 1=0-19%).

Setaria faberi (SETFA) [2] = test: Pre-emergence herbicidal glasshouse test, Setaria faberi (SETFA)
Description: as §1

Setaria faberi (SETFA) [3] = test: Post-emergence herbicidal glasshouse test, Setaria faberi (SETFA)
Description: as §1

[4] = system: Amaranthus retoflexus (AMARE); test: Pre-emergence herbicidal glasshouse test, Amaranthus retoflexus (AMARE)
Description: as §1

[5] = system: Abutilon theophrasti (ABUTH); test: Pre-emergence herbicidal glasshouse test, Abutilon theophrasti (ABUTH)
Description: as §1

[6] = system: Ipomoea hederacea (IPOHE); test: Post-emergence herbicidal glasshouse test, Ipomoea hederacea (IPOHE)
Description: as §1

[7] = system: Echinochloa crus-galli (ECHCG); test: Post-emergence herbicidal glasshouse test, Echinochloa crus-galli (ECHCG)
Description: as §1

[8] = system: Echinochloa crus-galli (ECHCG); test: Pre-emergence herbicidal glasshouse test, Echinochloa crus-galli (ECHCG)
Description: as §1

[9] = system: Amaranthus retoflexus (AMARE); test: Post-emergence herbicidal glasshouse test, Amaranthus retoflexus (AMARE)
Description: as §1

[10] = system: Ipomoea hederacea (IPOHE); test: Pre-emergence herbicidal glasshouse test, Ipomoea hederacea (IPOHE)
Description: as §1

Row | Structure (SMILES) | POST Application ABUTH, percentage damage (five point scale) ([1]; 500 g/h) | PRE Application SETFA, percentage damage (five point scale) (Setaria faberi (SETFA) [2]; 500 g/h) | POST Application SETFA, percentage damage (five point scale) (Setaria faberi (SETFA) [3]; 500 g/h) | PRE Application AMARE, percentage damage (five point scale) ([4]; 500 g/h) | PRE Application ABUTH, percentage damage (five point scale) ([5]; 500 g/h) | POST Application IPOHE, percentage damage (five point scale) ([6]; 500 g/h) | POST Application ECHCG, percentage damage (five point scale) ([7]; 500 g/h) | PRE Application ECHCG, percentage damage (five point scale) ([8]; 500 g/h) | POST Application AMARE, percentage damage (five point scale) ([9]; 500 g/h) | PRE Application IPOHE, percentage damage (five point scale) ([10]; 500 g/h) | also measured
1 | Cn1nnnc1NC(=O)c1ccc(C(F)(F)F)c(N=CN2CCOCC2)c1Cl [Compound 1.135] | – | – | – | – | – | – | – | – | – | – | POST Application ABUTH, percentage damage (five point scale) ([1]; applied at 250 g/ha): 5 (5=80-100%); PRE Application SETFA, percentage damage (five point scale) (Setaria faberi (SETFA) [2]; applied at 250 g/ha): 5 (5=80-100%); POST Application SETFA, percentage damage (five point scale) (Setaria faberi (SETFA) [3]; applied at 250 g/ha): 5 (5=80-100%); PRE Application AMARE, percentage damage (five point scale) ([4]; applied at 250 g/ha): 5 (5=80-100%); PRE Application ABUTH, percentage damage (five point scale) ([5]; applied at 250 g/ha): 5 (5=80-100%); POST Application IPOHE, percentage damage (five point scale) ([6]; applied at 250 g/ha): 5 (5=80-100%); POST Application ECHCG, percentage damage (five point scale) ([7]; applied at 250 g/ha): 3 (3=40-59%); PRE Application ECHCG, percentage damage (five point scale) ([8]; applied at 250 g/ha): 5 (5=80-100%); POST Application AMARE, percentage damage (five point scale) ([9]; applied at 250 g/ha): 5 (5=80-100%); PRE Application IPOHE, percentage damage (five point scale) ([10]; applied at 250 g/ha): 5 (5=80-100%)
2 | Cc1c(C(=O)C2=C(O)CCCC2=O)ccc(S(C)(=O)=O)c1N=CN(C)C [Compound 3.025] | 5 (5=80-100%) | 4 (4=60-79%) | 5 (5=80-100%) | 5 (5=80-100%) | 5 (5=80-100%) | 5 (5=80-100%) | 5 (5=80-100%) | 5 (5=80-100%) | 5 (5=80-100%) | 4 (4=60-79%) | –
3 | CC(=Nc1c(C(F)(F)F)ccc(C(=O)Nc2nnc(C)o2)c1Cl)N(C)C [Compound 2.148] | 5 (5=80-100%) | 5 (5=80-100%) | 5 (5=80-100%) | 5 (5=80-100%) | 5 (5=80-100%) | 3 (3=40-59%) | 5 (5=80-100%) | 5 (5=80-100%) | 5 (5=80-100%) | 5 (5=80-100%) | –
4 | CN(C=Nc1c(C(F)(F)F)ccc(C(=O)C2=C(O)CCCC2=O)c1Cl)CC(F)(F)F [Compound 3.130] | 5 (5=80-100%) | 5 (5=80-100%) | 5 (5=80-100%) | 5 (5=80-100%) | 5 (5=80-100%) | 4 (4=60-79%) | 5 (5=80-100%) | 5 (5=80-100%) | 5 (5=80-100%) | 5 (5=80-100%) | –
5 | Cc1nnc(NC(=O)c2ccc(C(F)(F)F)c(/N=C/N(C)C)c2Cl)o1 [Compound 2.049, 2-chloro-3-[(E)-dimethylaminomethyleneamino]-N-(5-methyl-1,3,4-oxadiazol-2-yl)-4-(trifluoromethyl)benzamide] | 5 (5=80-100%) | 5 (5=80-100%) | 5 (5=80-100%) | 5 (5=80-100%) | 5 (5=80-100%) | 5 (5=80-100%) | 5 (5=80-100%) | 5 (5=80-100%) | 5 (5=80-100%) | 5 (5=80-100%) | –
6 | CC(C)N(C)C=Nc1c(C(F)(F)F)ccc(C(=O)Nc2nnnn2C)c1Cl [Compound 1.140] | 5 (5=80-100%) | 5 (5=80-100%) | 5 (5=80-100%) | 5 (5=80-100%) | 5 (5=80-100%) | 5 (5=80-100%) | 5 (5=80-100%) | 5 (5=80-100%) | 5 (5=80-100%) | 5 (5=80-100%) | –
7 | CN(C)C=Nc1c(S(C)(=O)=O)ccc(C(=O)C2=C(O)CCCC2=O)c1Cl [Compound 3.057] | 5 (5=80-100%) | 5 (5=80-100%) | 5 (5=80-100%) | 5 (5=80-100%) | 5 (5=80-100%) | 5 (5=80-100%) | 5 (5=80-100%) | 5 (5=80-100%) | 5 (5=80-100%) | 5 (5=80-100%) | –
8 | CN(C)C=Nc1c(S(C)(=O)=O)ccc(C(=O)Nc2nnnn2C)c1Cl [Compound 1.057] | – | – | – | – | – | – | – | – | – | – | POST Application ABUTH, percentage damage (five point scale) ([1]; applied at 125 g/ha): 5 (5=80-100%); PRE Application SETFA, percentage damage (five point scale) (Setaria faberi (SETFA) [2]; applied at 125 g/ha): 5 (5=80-100%); POST Application SETFA, percentage damage (five point scale) (Setaria faberi (SETFA) [3]; applied at 125 g/ha): 5 (5=80-100%); PRE Application AMARE, percentage damage (five point scale) ([4]; applied at 125 g/ha): 5 (5=80-100%); PRE Application ABUTH, percentage damage (five point scale) ([5]; applied at 125 g/ha): 5 (5=80-100%); POST Application IPOHE, percentage damage (five point scale) ([6]; applied at 125 g/ha): 5 (5=80-100%); POST Application ECHCG, percentage damage (five point scale) ([7]; applied at 125 g/ha): 5 (5=80-100%); PRE Application ECHCG, percentage damage (five point scale) ([8]; applied at 125 g/ha): 5 (5=80-100%); POST Application AMARE, percentage damage (five point scale) ([9]; applied at 125 g/ha): 5 (5=80-100%); PRE Application IPOHE, percentage damage (five point scale) ([10]; applied at 125 g/ha): 5 (5=80-100%)
9 | CCN(C=Nc1c(S(C)(=O)=O)ccc(C(=O)Nc2nnnn2C)c1C)CC [Compound 1.031] | 5 (5=80-100%) | 5 (5=80-100%) | 5 (5=80-100%) | 5 (5=80-100%) | 5 (5=80-100%) | 5 (5=80-100%) | 5 (5=80-100%) | 5 (5=80-100%) | 5 (5=80-100%) | 4 (4=60-79%) | –
10 | Cc1nnc(NC(=O)c2ccc(C(F)(F)F)c(N=CN(C)C)c2C)o1 [Compound 2.017] | 4 (4=60-79%) | 4 (4=60-79%) | 5 (5=80-100%) | 5 (5=80-100%) | 5 (5=80-100%) | 4 (4=60-79%) | 5 (5=80-100%) | 5 (5=80-100%) | 5 (5=80-100%) | 5 (5=80-100%) | –
11 | CON=C(C)N(C)Cc1c(C(F)(F)F)ccc(C(=O)Nc2nnnn2C)c1Cl [Compound 4.014] | 5 (5=80-100%) | 5 (5=80-100%) | 5 (5=80-100%) | 5 (5=80-100%) | 5 (5=80-100%) | 5 (5=80-100%) | 5 (5=80-100%) | 5 (5=80-100%) | 5 (5=80-100%) | 5 (5=80-100%) | –
12 | Cn1nnnc1NC(=O)c1ccc(C(F)(F)F)c(/N=C/N2CCCC2)c1Cl [Compound 1.132, 2-chloro-N-(1-methyltetrazol-5-yl)-3-[(E)-pyrrolidin-1-ylmethyleneamino]-4-(trifluoromethyl)benzamide] | 5 (5=80-100%) | 5 (5=80-100%) | 5 (5=80-100%) | 5 (5=80-100%) | 5 (5=80-100%) | 5 (5=80-100%) | 5 (5=80-100%) | 5 (5=80-100%) | 5 (5=80-100%) | 5 (5=80-100%) | –
